The source of these data is ChEMBL document CHEMBL5058564, “EUbOPEN Chemogenomics Library 2 (Incucyte)” (2022).

What all share (format): toxicity, cell-based
One data set deals with HEK-293T. The experiment in a line: Incucyte cell viability with HEK293T. The conditions noted are these: human, 10 µM, compound concentration 10 uM.
The next data set relates to Fibroblast. The experiment in a line: Incucyte cell viability with human fibroblast. As to conditions: 10 µM, compound concentration 10 uM.
In another data set the test system is U2OS. The experiment in a line: Incucyte cell viability with U2OS. The conditions noted are these: human, 10 µM, compound concentration 10 uM.
The mark [1] stands for this setting: 6 h, replicate number 1, timepoint 6 hours.
Setting [2] is: 6 h, replicate number 2, timepoint 6 hours.
Setting [3] is: 12 h, replicate number 1, timepoint 12 hours.
Where [4] appears, read: 12 h, replicate number 2, timepoint 12 hours.
Setting [5] is: 18 h, replicate number 1, timepoint 18 hours.
[6] abbreviates: 18 h, replicate number 2, timepoint 18 hours.
The mark [7] stands for this setting: 24 h, replicate number 1, timepoint 24 hours.
Setting [8] is: 24 h, replicate number 2, timepoint 24 hours.
The mark [9] stands for this setting: 0 h, replicate number 2, timepoint 0 hours.
[10] abbreviates: 0 h, replicate number 1, timepoint 0 hours.
Further: unitless GR value; below 1 slowed growth and below 0 cell loss.

Regarding `COc1cc(Nc2ncc3c(n2)-c2ccc(Cl)cc2C(c2c(F)cccc2OC)=NC3)ccc1C(=O)O` [ALISERTIB], the “Growth Rate” value in the data set on HEK-293T (setting [1]) is -0.03; with HEK-293T (setting [2]) it was 0.03; in the data set on HEK-293T (setting [3]) it was 0.13; with HEK-293T (setting [4]), 0; in the data set on HEK-293T (setting [5]), 0.39; in the data set with HEK-293T (setting [6]), 0.33. Further, the “Growth Rate” value is reported as 0.38 with HEK-293T (setting [7]); 0.26 in the data set on HEK-293T (setting [8]); 0.68 in the data set with Fibroblast (setting [9]); -0.97 with Fibroblast (setting [1]); -0.09 in the data set on Fibroblast (setting [2]); -0.79 in the data set with Fibroblast (setting [3]). The “Growth Rate” value with Fibroblast (setting [4]) is -0.17; in the data set on Fibroblast (setting [5]) it was -0.64; with Fibroblast (setting [6]), -0.13; in the data set on Fibroblast (setting [7]), -0.39; in the data set with Fibroblast (setting [8]) it was -0.09; in the data set on U2OS (setting [10]), -0.14. Further, the “Growth Rate” value in the data set with U2OS (setting [9]) was determined as 0.41; in the data set on U2OS (setting [1]), 0.83; in the data set with U2OS (setting [3]), 0.43; in the data set with U2OS (setting [4]), 0.54; in the data set with U2OS (setting [5]), 0.19; in the data set with U2OS (setting [6]), 0.45. Further, the “Growth Rate” value in the data set with U2OS (setting [7]) was 0.39; in the data set with U2OS (setting [8]), 0.65.
Turning to `CC(=O)Nc1cccc2c1c(Sc1ccc(Cl)cc1)c(C)n2CC(=O)O` [AZD1981], the “Growth Rate” value with HEK-293T (setting [9]) is reported as 0.75; in the data set on HEK-293T (setting [1]) it was 0.62; in the data set on HEK-293T (setting [3]), 0.62; in the data set on HEK-293T (setting [5]) it was 0.83; with HEK-293T (setting [7]) it was 0.71; in the data set with Fibroblast (setting [9]), 0.38. The “Growth Rate” value in the data set on Fibroblast (setting [1]) was found to be 0.15; in the data set on Fibroblast (setting [2]) it was 0.04; in the data set on Fibroblast (setting [3]), 0.35; in the data set on Fibroblast (setting [4]), 0.14; in the data set on Fibroblast (setting [6]), 0.25; with Fibroblast (setting [7]) it was 0.73. Besides, the “Growth Rate” value in the data set with Fibroblast (setting [8]) worked out at 0.26; with U2OS (setting [2]) it was 0.93; in the data set with U2OS (setting [6]) it was 0.89; in the data set on U2OS (setting [8]) it was 0.95.
Turning to `COc1cc(N2CCN(C)CC2)ccc1Nc1nccc(-c2cn(C)c3cnccc23)n1`, the “Growth Rate” value in the data set on HEK-293T (setting [10]) is -0.61; in the data set with HEK-293T (setting [9]) it was -0.28; with HEK-293T (setting [8]), 0.95; in the data set on Fibroblast (setting [10]), -0.91; in the data set on Fibroblast (setting [9]), -0.24; in the data set on U2OS (setting [10]), 0.8. The “Growth Rate” value is recorded as -1 in the data set on U2OS (setting [9]) and 0.96 in the data set with U2OS (setting [8]).
For `COc1ccc2c(c1)C(C(=O)N(Cc1ccc(N(C)C)cc1)c1ccc(C(C)C)cc1)CCC2.Cl` (stereo not given), the “Growth Rate” value in the data set on HEK-293T (setting [10]) is given as 0.39; in the data set on HEK-293T (setting [9]) it was 0.72; in the data set on HEK-293T (setting [3]) it was 0.27; with HEK-293T (setting [4]), 0.46; in the data set on HEK-293T (setting [5]), 0.43; with HEK-293T (setting [6]), 0.59. The “Growth Rate” value with HEK-293T (setting [7]) is on record as 0.52; in the data set with HEK-293T (setting [8]) it was 0.76; with Fibroblast (setting [1]), 0.76; in the data set on Fibroblast (setting [7]) it was 0.93; in the data set with U2OS (setting [10]), -0.58; in the data set with U2OS (setting [9]), -1. Moreover, the “Growth Rate” value in the data set with U2OS (setting [1]) is on record as 0.25; with U2OS (setting [3]), 0.93; in the data set with U2OS (setting [4]), 0.84; in the data set on U2OS (setting [5]) it was 0.73; with U2OS (setting [6]) it was 0.81; with U2OS (setting [8]) it was 0.79.
For `Cc1cccc(NC(=O)CN2CCC(c3ccccn3)CC2)c1.Cl.Cl`, the “Growth Rate” value in the data set on HEK-293T (setting [1]) is on record as 0.47; with HEK-293T (setting [2]), 0.66; in the data set on HEK-293T (setting [3]) it was 0.79; in the data set with HEK-293T (setting [4]), 0.97; in the data set with HEK-293T (setting [6]), 0.98; in the data set on Fibroblast (setting [9]) it was 0.72. The “Growth Rate” value is recorded as 0.02 in the data set on Fibroblast (setting [1]); 0.19 in the data set on Fibroblast (setting [3]); 0.48 with Fibroblast (setting [5]); 0.77 with Fibroblast (setting [7]); -1 in the data set on U2OS (setting [9]).
With `C[C@H]1[C@H](OC(=O)CCC(=O)O)O[C@@H]2O[C@@]3(C)CC[C@H]4[C@H](C)CC[C@@H]1[C@@]24OO3` [ARTESUNATE], the “Growth Rate” value in the data set on HEK-293T (setting [9]) is 0.58; in the data set with HEK-293T (setting [1]), 0.56; in the data set on HEK-293T (setting [3]) it was -0.23; in the data set with HEK-293T (setting [4]) it was -0.1; in the data set on HEK-293T (setting [5]), -0.07; in the data set on HEK-293T (setting [6]), -0.18. The “Growth Rate” value with HEK-293T (setting [7]) was -0.08; with HEK-293T (setting [8]), -0.16; with Fibroblast (setting [10]) it was 0.98; in the data set with Fibroblast (setting [9]), 0.19; with Fibroblast (setting [3]), 0.22; with Fibroblast (setting [4]), 0.75. Also, the “Growth Rate” value with Fibroblast (setting [5]) was -0.31; in the data set with Fibroblast (setting [6]) it was 0.04; with Fibroblast (setting [7]), -0.42; with Fibroblast (setting [8]), -0.06; in the data set with U2OS (setting [10]), 0.12; with U2OS (setting [9]), 0.07. For the same compound, the “Growth Rate” value was 0.66 with U2OS (setting [1]); 0.72 with U2OS (setting [2]); 0.85 in the data set on U2OS (setting [4]); 0.86 in the data set on U2OS (setting [5]); 0.75 in the data set on U2OS (setting [6]); 0.98 with U2OS (setting [7]). Besides, the “Growth Rate” value in the data set with U2OS (setting [8]) came to 0.81.
On to `N[C@@]1(C(=O)O)CO[C@H]2[C@H](C(=O)O)[C@H]21` [LY-379268], for which the “Growth Rate” value in the data set with HEK-293T (setting [10]) amounted to 0.68; with HEK-293T (setting [9]), 0.79; with HEK-293T (setting [2]), 0.88; in the data set with Fibroblast (setting [9]), 0.44; with Fibroblast (setting [2]) it was 0.16; in the data set on Fibroblast (setting [4]), 0.66. The “Growth Rate” value is -0.44 with U2OS (setting [10]), -0.79 in the data set on U2OS (setting [9]), 0.99 in the data set with U2OS (setting [2]) and 0.92 with U2OS (setting [6]).
With `CCCN(CCC)[C@@H]1CCc2ccc3[nH]c(C#N)cc3c2C1.Cl`, the “Growth Rate” value with HEK-293T (setting [10]) came to 0.55; in the data set with HEK-293T (setting [9]), 0.54; in the data set with HEK-293T (setting [1]) it was 0.81; with HEK-293T (setting [3]), 0.81; in the data set on HEK-293T (setting [7]) it was 1; with HEK-293T (setting [8]), 0.95. Further, the “Growth Rate” value is -0.06 in the data set with Fibroblast (setting [9]); 0.01 with Fibroblast (setting [1]); 0.97 in the data set with Fibroblast (setting [5]); 0.95 in the data set on Fibroblast (setting [7]); 0.61 in the data set on U2OS (setting [10]); 0.9 in the data set with U2OS (setting [9]). In addition, the “Growth Rate” value in the data set with U2OS (setting [1]) was found to be 0.8; with U2OS (setting [5]) it was 0.73; with U2OS (setting [7]) it was 0.95.
As for `NC[C@H](O)c1ccc(O)c(O)c1.O.O=C(O)C(O)C(O)C(=O)O`, the “Growth Rate” value is given as 0.69 in the data set with HEK-293T (setting [9]); 0.63 in the data set on HEK-293T (setting [1]); 0.75 in the data set with HEK-293T (setting [3]); 0.76 in the data set on HEK-293T (setting [5]); 0.8 in the data set with HEK-293T (setting [6]); 0.86 in the data set with HEK-293T (setting [7]). Besides, the “Growth Rate” value came to 0.92 in the data set with Fibroblast (setting [10]); 0.62 with Fibroblast (setting [9]); 0.19 with Fibroblast (setting [1]); 0.79 in the data set with Fibroblast (setting [3]); 0.97 in the data set with Fibroblast (setting [5]); 0.77 with Fibroblast (setting [7]). Further, the “Growth Rate” value with U2OS (setting [9]) is listed as 0.46; in the data set on U2OS (setting [2]), 0.72; in the data set with U2OS (setting [4]) it was 0.93; in the data set with U2OS (setting [6]), 0.98.
